According to patent publication US20250042857A1, “SOS1 Inhibitor With Pyrido-Fused Six-Membered Ring Structure” (HAIHE BIOPHARMA CO., LTD., priority 2021, published 2025):
Like-named read-outs stand apart in the source and are kept apart here.

Tests used:
[1] = biological target: KRAS-G12C/SOS1 (Homo sapiens (Human), UniProt Q07889); assay: Detection of inhibitory effects of compounds on KRAS-G12C/SOS1 (KRASG12C/SOS binding kit, HTRF); conditions: Em665/620, read-out: IC50, inhibitory activity on interaction of KRAS-G12C/SOS1
Chain of KRAS-G12C/SOS1 (Q07889 whole entry, stated change not applied): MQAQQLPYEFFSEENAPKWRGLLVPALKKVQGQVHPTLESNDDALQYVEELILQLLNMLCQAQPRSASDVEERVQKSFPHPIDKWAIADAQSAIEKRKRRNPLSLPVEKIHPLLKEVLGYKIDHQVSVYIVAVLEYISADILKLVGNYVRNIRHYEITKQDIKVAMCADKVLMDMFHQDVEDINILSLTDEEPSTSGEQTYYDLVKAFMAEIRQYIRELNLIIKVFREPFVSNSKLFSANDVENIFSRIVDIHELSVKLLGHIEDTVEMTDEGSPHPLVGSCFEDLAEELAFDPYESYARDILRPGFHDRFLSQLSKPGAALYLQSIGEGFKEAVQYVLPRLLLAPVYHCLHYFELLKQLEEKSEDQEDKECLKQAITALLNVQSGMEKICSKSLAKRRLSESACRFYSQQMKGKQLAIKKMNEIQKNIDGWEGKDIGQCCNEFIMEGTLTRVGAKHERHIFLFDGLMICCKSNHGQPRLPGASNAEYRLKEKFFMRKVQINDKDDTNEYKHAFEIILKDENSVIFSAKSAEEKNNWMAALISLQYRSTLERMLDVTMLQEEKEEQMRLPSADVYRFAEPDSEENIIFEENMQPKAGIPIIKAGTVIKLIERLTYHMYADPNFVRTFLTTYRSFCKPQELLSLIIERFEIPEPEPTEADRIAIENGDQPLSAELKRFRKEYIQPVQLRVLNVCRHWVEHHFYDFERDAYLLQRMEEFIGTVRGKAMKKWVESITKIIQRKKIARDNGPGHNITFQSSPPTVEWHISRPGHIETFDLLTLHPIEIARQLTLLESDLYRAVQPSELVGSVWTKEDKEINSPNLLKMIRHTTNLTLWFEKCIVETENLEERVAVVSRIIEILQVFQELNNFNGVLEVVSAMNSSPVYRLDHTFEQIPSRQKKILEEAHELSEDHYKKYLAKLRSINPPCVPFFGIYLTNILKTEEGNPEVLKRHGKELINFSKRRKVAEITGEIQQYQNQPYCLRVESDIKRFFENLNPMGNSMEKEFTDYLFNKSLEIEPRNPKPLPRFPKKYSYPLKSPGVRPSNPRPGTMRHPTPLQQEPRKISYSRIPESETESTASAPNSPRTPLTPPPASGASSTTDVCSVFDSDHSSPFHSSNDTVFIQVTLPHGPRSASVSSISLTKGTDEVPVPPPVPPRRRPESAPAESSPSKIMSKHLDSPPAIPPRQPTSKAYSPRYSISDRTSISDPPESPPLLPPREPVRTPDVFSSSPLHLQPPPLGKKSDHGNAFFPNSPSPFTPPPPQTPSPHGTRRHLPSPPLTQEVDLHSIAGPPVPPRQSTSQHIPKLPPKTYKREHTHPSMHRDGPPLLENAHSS
Summary of the method: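 HTRF binding of Tag2-KRAS-G12C to Tag1-SOS1 with compounds (10-point 3-fold dilution from 5,000 nM) for 15 min at room temperature, then anti-Tag1-Tb and anti-Tag2-XL665 for 120 min at 4° C. Em665/620 read; inhibition normalised to control wells, IC50 from variable-slope log(inhibitor) fit.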

[2] = tested on: p-ERK of PC-9 cells; assay: p-ERK HTRF assay in PC-9 cells; format: cell-based; conditions: PC-9 lung cancer cells, 1 hour treatment, read-out: IC50, inhibitory activity on p-ERK of PC-9 cells
Summary of the method: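 PC-9 lung cancer cells plated overnight, then exposed 1 h at 37 °C to a 10-point compound series (10,000–[…] nM final, 0.1% DMSO). After 1 h lysis, phospho-ERK1/2 (Thr202/Tyr204) measured by HTRF at 665/615 nm. Percent inhibition calculated from max and min signals.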

Structure (SMILES) | IC50 [1] [nM] | IC50 ([2]; Homo sapiens, PC-9, 1 h) [nM] | IC50 [2] [nM]
CC(=O)NC1CCN(c2cc3c(N[C@H](C)c4cccc(C(F)F)c4F)ccnc3cn2)CC1 [Compound B-37] | ≤ 100 | > 1000 | –
CC(=O)N1C2CCC1CN(c1cc3c(N[C@H](C)c4cccc(C#N)c4F)ccnc3cn1)C2 [Compound B-165] | ≤ 100 | 300 to 1000 | –
C[C@@H](Nc1ccnc2cnc(C3(O)CCC(O)CC3)cc12)c1cccc(C(F)(F)F)c1F (single isomer, unassigned) [Compound B-85-P2] | ≤ 100 | – | ≤ 300
CC(=O)N1CCN(c2cc3c(N[C@H](C)c4cccc(C(F)(F)F)c4C)ccnc3cn2)CC1 [Compound B-50] | ≤ 100 | ≤ 300 | –
C[C@@H](Nc1ccnc2cnc(N3CCOCC3)cc12)c1cccc(C(F)F)c1F [Compound B-21] | ≤ 100 | 300 to 1000 | –
CC(=O)N1CCN(c2cc3c(N[C@H](C)c4cccc(C(F)F)c4F)cc(C)nc3cn2)CC1 [Compound B-71] | ≤ 100 | ≤ 300 | –
CC(=O)N1CCN(c2cc3c(N[C@H](C)c4cccc(C(F)F)c4F)ccnc3cn2)CC1CO (stereo partly shown) [Compound B-44] | ≤ 100 | ≤ 300 | –
CNC(=O)C1CCN(c2cc3c(N[C@H](C)c4cccc(C(F)F)c4F)ccnc3cn2)CC1 [Compound B-36] | ≤ 100 | ≤ 300 | –
C[C@@H](Nc1ccnc2cnc(C3(O)CCC(O)CC3)cc12)c1cccc(C(C)(F)F)c1F (single isomer, unassigned) [Compound B-87-P2] | 100 to 500 | – | > 1000
C[C@@H](Nc1ccnc2cnc(C3(O)CCN(CCO)CC3)cc12)c1cccc(C(F)F)c1F [Compound B-117] | ≤ 100 | 300 to 1000 | –
C[C@@H](Nc1ccnc2cnc(C3(O)CCC(O)CC3)cc12)c1cccc(C(C)(F)F)c1F (single isomer, unassigned) [Compound B-87-P1] | 100 to 500 | > 1000 | –
CC(=O)N1CCN(c2cc3c(N[C@H](C)c4cccc(C(F)F)c4F)ccnc3cn2)C(=O)C1 [Compound B-53] | ≤ 100 | 300 to 1000 | –
C[C@@H](Nc1ccnc2cnc(C3CC3)cc12)c1cccc(C(F)F)c1F [Compound B-1] | ≤ 100 | 300 to 1000 | –
C[C@@H](Nc1ccnc2cnc(N3CCCS3(=O)=O)cc12)c1cccc(C(F)F)c1F [Compound B-52] | ≤ 100 | ≤ 300 | –
C[C@@H](Nc1ccnc2cnc(C3(O)CCN(C4COCC4O)CC3)cc12)c1cccc(C(F)F)c1F (stereo partly shown) [Compound B-152] | ≤ 100 | 300 to 1000 | –
C[C@@H](Nc1ccnc2cnc(N3CCC(O)(CN)CC3)cc12)c1cccc(C(F)F)c1F [Compound B-75] | ≤ 100 | 300 to 1000 | –
C[C@@H](Nc1ccnc2cnc(N3CCC(O)CC3)cc12)c1cccc(C(F)F)c1F [Compound B-24] | ≤ 100 | ≤ 300 | –
CC(=O)N1CCN(c2cc3c(N[C@H](C)c4cccc(C(F)F)c4F)ccnc3c(C)n2)CC1 [Compound B-62] | ≤ 100 | ≤ 300 | –
COC[C@@H]1CN(C(C)=O)CCN1c1cc2c(N[C@H](C)c3cccc(C(F)F)c3F)ccnc2cn1 [Compound B-48] | ≤ 100 | ≤ 300 | –
CC(=O)N1CCN(c2cc3c(N[C@H](C)c4cccc(C(F)F)c4F)ccnc3cn2)[C@@H](CC#N)C1 [Compound B-56] | ≤ 100 | ≤ 300 | –
C[C@@H](Nc1ccnc2cnc(C3(O)CCC(O)CC3)cc12)c1cccc(C(F)(F)F)c1F (single isomer, unassigned) [Compound B-85-P1] | ≤ 100 | 300 to 1000 | –
C[C@@H](Nc1ccnc2cnc(N3CCC(O)CC3=O)cc12)c1cccc(C(F)F)c1F (stereo partly shown) [Compound B-54] | ≤ 100 | 300 to 1000 | –
CC(=O)N1CCC(N)(c2cc3c(N[C@H](C)c4cccc(C(F)F)c4F)ccnc3cn2)CC1 [Compound B-51] | ≤ 100 | ≤ 300 | –
C[C@@H](Nc1ccnc2cnc(N3CCS(=O)(=O)CC3)cc12)c1cccc(C(F)F)c1F [Compound B-38] | ≤ 100 | ≤ 300 | –
CNC(=O)C1(O)CCN(c2cc3c(N[C@H](C)c4cccc(C(F)F)c4F)ccnc3cn2)CC1 [Compound B-76] | ≤ 100 | ≤ 300 | –
C[C@@H](Nc1ccnc2cnc(N3CC[C@H](N)C3)cc12)c1cccc(C(F)F)c1F [Compound B-33] | ≤ 100 | 300 to 1000 | –

Results, then the compound that gave them:

IC50 [1] [nM] | IC50 ([2]; Homo sapiens, PC-9, 1 h) [nM] | IC50 [2] [nM] | Structure (SMILES)
≤ 100 | ≤ 300 | – | COc1nc(C2(O)CCN(C(=O)CO)CC2)cc2c(N[C@H](C)c3cccc(C(F)F)c3F)ccnc12 [Compound B-173]
≤ 100 | ≤ 300 | – | C[C@@H](Nc1ccnc2cnc(C3(O)CCN(C(=O)CO)CC3)cc12)c1cccc(C(F)F)c1F [Compound B-113]
≤ 100 | 300 to 1000 | – | Cc1nnc(N2CCC(O)(c3cc4c(N[C@H](C)c5cccc(C(F)F)c5F)ccnc4cn3)CC2)o1 [Compound B-153]
≤ 100 | ≤ 300 | – | CC(=O)N1CCN(c2cc3c(N[C@H](C)c4cccc(C(F)F)c4F)c(F)cnc3cn2)CC1 [Compound B-111]
≤ 100 | 300 to 1000 | – | Cc1cc(N[C@H](C)c2cccc(C(F)F)c2F)c2cc(C3(O)CCC(O)CC3)ncc2n1 (single isomer, unassigned) [Compound B-88-P2]
≤ 100 | ≤ 300 | – | CC(=O)N1CCC(O)(c2cc3c(N[C@H](C)c4cccc(C(F)(F)F)c4F)ccnc3cn2)CC1 [Compound B-112]
100 to 500 | – | > 1000 | C[C@@H](Nc1ccnc2cnc(C3(O)CCC(C(C)(C)O)CC3)cc12)c1cccc(C(F)(F)F)c1F (single isomer, unassigned) [Compound B-115-P1]
≤ 100 | – | ≤ 300 | C[C@@H](Nc1ccnc2cnc(C3(O)CCC(C(C)(C)O)CC3)cc12)c1cccc(C(F)(F)F)c1F (single isomer, unassigned) [Compound B-115-P2]
≤ 100 | ≤ 300 | – | C[C@@H](Nc1ccnc2cnc(C3(O)CCN(C(=O)[C@H]4CCOC4)CC3)cc12)c1cccc(C(F)F)c1F [Compound B-134]
100 to 500 | 300 to 1000 | – | C[C@H](O)C(=O)N1CCC(O)(c2cc3c(N[C@H](C)c4cccc(C(F)F)c4F)ccnc3c(-c3cnn(C)c3)n2)CC1 [Compound B-172]
≤ 100 | ≤ 300 | – | C[C@H](O)C(=O)N1CCC(O)(c2cc3c(N[C@H](C)c4cccc(C(F)F)c4F)ccnc3cn2)CC1 [Compound B-119]
≤ 100 | > 1000 | – | C[C@@H](Nc1ccnc2cnc(C3(O)CCN(C(=O)CN4CC[C@@H](O)C4)CC3)cc12)c1cccc(C(F)F)c1F [Compound B-150]
≤ 100 | ≤ 300 | – | C[C@@H](Nc1ccnc2cnc(C3(O)CCN(C(=O)Cc4ccncc4)CC3)cc12)c1cccc(C(F)F)c1F [Compound B-139]
≤ 100 | 300 to 1000 | – | C[C@@H](Nc1ccnc2cnc(C3(O)CCC(N4CCNCC4)CC3)cc12)c1cccc(C(F)F)c1F (single isomer, unassigned) [Compound B-97-P2]
≤ 100 | ≤ 300 | – | C[C@@H](Nc1ccnc2cnc(C3(O)CCN(C(=O)N(C)CCO)CC3)cc12)c1cccc(C(F)F)c1F [Compound B-164]
≤ 100 | ≤ 300 | – | CC(=O)N1CCN(c2cc3c(N[C@H](C)c4cccc(C(F)F)c4F)ccnc3c(-c3cnn(C)c3)n2)CC1 [Compound B-169]
≤ 100 | 300 to 1000 | – | COC1(c2cc3c(N[C@H](C)c4cccc(C(F)F)c4F)ccnc3cn2)CCOCC1 [Compound B-104]
≤ 100 | ≤ 300 | – | C[C@@H](Nc1ccnc2cnc(C3(O)CCN(C(=O)CC#N)CC3)cc12)c1cccc(C(F)F)c1F [Compound B-116]
≤ 100 | > 1000 | – | C[C@@H](Nc1ccnc2cnc(C3(O)CCN(C(=O)[C@H]4C[C@@H](O)CN4)CC3)cc12)c1cccc(C(F)F)c1F [Compound B-145]
≤ 100 | ≤ 300 | – | C[C@@H](Nc1ccnc2cnc(C3(O)CCN(C(=O)C4(C#N)CC4)CC3)cc12)c1cccc(C(F)F)c1F [Compound B-127]
≤ 100 | ≤ 300 | – | C[C@@H](Nc1ccnc2cnc(C3(O)CCN(C(=O)C4CC4)CC3)cc12)c1cccc(C(F)F)c1F [Compound B-128]
≤ 100 | ≤ 300 | – | CC(=O)N1CC=C(c2cc3c(N[C@H](C)c4cccc(C(F)F)c4F)ccnc3cn2)C1 [Compound B-109]
≤ 100 | > 1000 | – | C[C@@H](Nc1ccnc2cnc(C3(O)CCN(C(=O)[C@H]4C[C@@H](O)CN4C)CC3)cc12)c1cccc(C(F)F)c1F [Compound B-147]
100 to 500 | 300 to 1000 | – | COc1nc(C2(O)CCN(C(=O)[C@H](C)O)CC2)cc2c(N[C@H](C)c3cccc(C(F)F)c3F)ccnc12 [Compound B-174]
≤ 100 | ≤ 300 | – | C[C@@H](Nc1c(F)cnc2cnc(C3(O)CCN(C(=O)CO)CC3)cc12)c1cccc(C(F)F)c1F [Compound B-123]
≤ 100 | ≤ 300 | – | C[C@H](O)C(=O)N1CCC(O)(c2cc3c(N[C@H](C)c4cccc(C(F)F)c4F)c(F)cnc3cn2)CC1 [Compound B-124]
≤ 100 | – | > 1000 | COc1nc(C2(O)CCC(O)CC2)cc2c(N[C@H](C)c3cccc(C(F)F)c3F)ccnc12 (single isomer, unassigned) [Compound B-178-P1]
